“And” between values parts separate entries of the source, which are not always exact repeats. Equal values may be shown once.
Key:
human plasma protein = assay: Plasma binding of 5-MIAA; format: in vitro ADME
Experimental: Binding to human plasma protein was determined. Reported are the unbound fraction (fu) for three replicates as well as the mean unbound fraction, the standard deviation and the mean % recovery (Table 8).

[1] = system: human hepatocytes (Hμrel HumanPool co-culture); assay: Metabolic stability in Hμrel human hepatocyte co-culture; format: in vitro ADME
Experimental: The incubations were performed using 1 and 10 μM initial concentrations and sampling at 0, 1, 2, 4, 8, 24, 48, and 72 hours (h) time points. The samples were analysed using UPLC/QE-orbitrap-MS.

[2] = Infant exposure estimate (DID, RID) from breast milk concentrations
[3] = LC-MS/MS of 5-MeO-DMT and metabolites in breastmilk, serum and urine of a lactating PPD patient
[4] = system: Escherichia coli (WP2 uvrA pKM101); assay: Bacterial mutation test, Escherichia coli; format: cell-based; conditions: up to 5000 μg/plate, absence and presence of S-9
Experimental: (§1) These conditions included treatments at concentrations up to 5000 μg/plate (the maximum recommended concentration according to current regulatory guidelines), in the absence and in the presence of a rat liver metabolic activation system (S-9).

[5] = Pharmacokinetics after single inhaled dose; format: in vivo, human
[6] = system: Salmonella typhimurium (TA98, TA100, TA1535 and TA1537); assay: Bacterial mutation test, Salmonella typhimurium; format: cell-based; conditions: up to 5000 μg/plate, absence and presence of S-9
Experimental: as §1

[7] = system: patients with postpartum depression (PPD); assay: Clinical trial of inhaled 5-MeO-DMT in postpartum depression; format: in vivo, human; conditions: for MADRS response (>=50% improvement) and remission (total <=10): 6 mg then 12 mg
Experimental: The single-arm, open-label clinical trial will involve 15 adult female patients with clinically diagnosed postpartum depression (PPD).
The second dose (12 mg) will only be administered if: • a. A peak experience (total score of ≥75) has not been achieved following the 6 mg dose, and • b. The 6 mg dose was safe and well-tolerated according to the investigator, • c. Any psychoactive effects (PsE) of the prior dose have subsided, and • d. Pre-dose vital parameters and forced expiratory volume in one second (FEV1) are in normal range, or if outside of the normal range, are not clinically significant according to the investigator. • 3. Similarly, a third dose (18 mg) will only be administered if: • a. A peak experience (total score of ≥75) has not been achieved following the 12 mg dose, and • b. The 12 mg dose was safe and well-tolerated according to the investigator, and • c. Any PsE of the prior dose have subsided, and • d. Pre-dose vital parameters and forced expiratory volume in one second (FEV1) are in normal range, or if outside of the normal range, are not clinically significant according to the investigator.
The patients will be assessed for a peak psychedelic experience (based on a patient-scored visual analogue scale, the PE scale), sedation, and other endpoints after dosing. Follow-up visits are planned for Day 1, and Day 7 after the dosing day.
The following criteria must be met by all patients considered for clinical trial participation: • 1. Is female and in the age range between 18 and 45 years (inclusive) at screening. • 2. Has a body mass index (BMI) in the range of 18.5 and 35 kg/m^2 (inclusive) at screening. • 3. Meets the trial criteria for PPD as assessed by a trial psychiatrist or registered psychologist: • a. Diagnosis of Major Depressive Disorder without psychotic features, confirmed by the Mini-International Neuropsychiatric Interview (MINI), with peri-partum onset that began no earlier than gestation and no later than the first 4 weeks postpartum. • b. Has a Montgomery-Åsberg Depression Rating Scale (MADRS) total score of equal to or greater than 28 at screening and pre-dose on Day 0. • 6. […] Patients must have a negative pregnancy test at screening and on the pre-test day (Day −1). • 5. Is willing to delay start of other antidepressant or anxiety medication until after the end of the trial at Day 7 and agrees to keep any psychotherapy unchanged during the trial.
A potential patient who meets any of the following key exclusion criteria will be excluded from participation in this trial: • 1. Has, based on history, psychiatric assessment, and evaluation of the MINI, a current or prior diagnosis of bipolar disorder, a manic or hypomanic episode, a psychotic disorder, Major Depressive Disorder (MDD) or other mood disorder with psychotic features, obsessive compulsive disorder, post-traumatic stress disorder (PTSD), autism spectrum disorder, borderline personality disorder, schizophrenia, delusional disorder, paranoid personality disorder, schizoaffective disorder, clinically significant intellectual disability, or any other psychiatric comorbidity that renders the patient unsuitable for the trial according to the investigator's judgment. • 2. Has one or more first or second degree relatives with a current or previously diagnosed bipolar disorder, psychotic disorder or other mood disorder (including MDD) with psychotic features. • 3. Is in the judgement of a trial psychiatrist or registered psychologist, at significant risk for suicide based on history, psychiatric assessment, and evaluation of suicidal ideation and suicidal behaviour based on the Columbia-Suicide Severity Rating Scale (C-SSRS). • 4. Has taken anti-depressive medication within 14 days or 5 half-lives (whichever is longer) prior to dosing (exception: within the last 5 weeks in the case of fluoxetine). • 5.

[8] = 2.5 hours after last 5-MeO-DMT dose
[9] = female, human, breast milk, inhaled

## 5-methoxyindole acetic acid [5-MIAA]
Human plasma protein; from mean fraction unbound
  plasma binding: ~50%
Human plasma protein; human plasma
  Mean % Recovery: 81.4%
  unbound fraction (fu), Replicate 1: 0.499
  unbound fraction (fu), Replicate 2: 0.462
  unbound fraction (fu), Replicate 3: 0.544
Human plasma protein; human plasma, three replicates
  Mean fu: 0.502
[1]; after 72h with hepatocytes, 1 and 10 μM
  remaining abundance: 75-82%
[1]; human hepatocytes, 1 μM
  in vitro intrinsic clearance: 0.15 μl/min/million cells
[2]; 5 kg infant
  DID per kg: 0.001377 mg/kg/day
[2]; three feeds of 250 ml
  total exposure of the infant (DID): 0.006886 mg 5-MIAA/day
[3]; 5-MIAA at 2.5 hours
  urine concentration, times higher than in serum: approx. 127 times
[3]; 1 hour after last 5-MeO-DMT dose
  5-MIAA concentration in breast milk: 13945.2
[3]; [8]
  5-MIAA concentration in breast milk: 13240.9
  5-MIAA urine concentration: 12
[3]; 8.5 hours after last 5-MeO-DMT dose
  5-MIAA concentration in breast milk: 359.4

## COc1ccc2[nH]cc(CCN(C)C)c2c1 [5-MeO-DMT]
[4]
  mutation induction: did not induce mutation
[5]; 3 hours after inhalation
  detectability in plasma: no longer detectable
[5]; repeated within 1 to 4 hours
  accumulation upon repeated administration: No accumulation
[6]
  mutation induction: did not induce mutation
[2]; 5 kg infant
  Daily Infant Dosage (DID) per kg: 0.0001385 mg/kg/day
[7]; first PPD patient
  MADRS response (>=50% improvement) and remission (total <=10): fulfilled standard criteria
[7]; first PPD patient, Day 7
  BIMF management domain, percentage improvement: 18%
  BIMF self-care domain, percentage improvement: 44%
[7]; first PPD patient: cramping left abdominal pain and headache, Day 0
  adverse events: mild, short-lasting and resolved spontaneously
[7]; first PPD patient, Day 1, as E149
  MADRS item score: 0
[7]; first PPD patient, Day 1, rows as E155
  BPRS item score: 1
[7]; first PPD patient, Day 7, rows as E155
  BPRS item score: 1
[7]; first PPD patient, Discharge, item by row: r24 Somatic Concern, r25 Anxiety, r26 Emotional withdrawal, r28 Conceptual disorganization, r30 Guilt feelings, r31 Tension, r32 Mannerisms and Posturing, r34 Grandiosity, r35 Depressive Mood, r36 Hostility, r37 Suspiciousness, r38 Hallucinatory behaviour, r40 Motor retardation, r41 Uncooperativeness, r42 Unusual Thought Content, r44 Blunted affect, r45 E
  BPRS item score: 1
[7]; second PPD patient
  MADRS response (>=50% improvement) and remission (total <=10): fulfilled standard criteria
[7]; second PPD patient: vomiting Day 0, headache Day 5
  adverse events: mild, short-lasting and resolved spontaneously
[3]; after 24 hours
  detection in breast milk: did not detect
[3]; [9]
  concentration at 2.5 h: 561 µg/mL
  concentration at 8.5 h: 42.1 µg/mL

## COc1ccc2[nH]cc(CCO)c2c1 [5-methoxytryptophol, 5-methoxyindole-3-ethanol]
[1]; 0 h, incubation by row: r7 1 μM Hepatocytes, r8 1 μM Stromal cells, r9 10 μM Hepatocytes, r10 10 μM Stromal cells
  relative LC/MS peak area for 5-methoxytryptophol: 100%
[1]; 1 h, as E141
  relative LC/MS peak area for 5-methoxytryptophol: 79% and 87%
[1]; 2 h, as E141
  relative LC/MS peak area for 5-methoxytryptophol: 57% and 81%
[1]; in 24 h with hepatocytes
  metabolic turnover: complete disappearance

## CN(C)CCc1c[nH]c2ccc(O)cc12 [bufotenine]
[5]; after 5-MeO-DMT, in no case detected 15 minutes after administration
  detection in human serum: barely detected
[3]; any time point after 5-MeO-DMT
  detection in serum and breastmilk: not detected
[3]; times by row as E172
  Bufotenine in Breastmilk: BLQ (Below limit of quantification. The lower limit of quantification is 25 pg/ml for both 5-MeO-DMT and 5-MIAA in both serum and breastmilk; it is 25 pg/ml in urine for 5-MeO-DMT and 250 pg/ml for 5-MIAA in urine.)
  Bufotenine in Serum: BLQ (Below limit of quantification. The lower limit of quantification is 25 pg/ml for both 5-MeO-DMT and 5-MIAA in both serum and breastmilk; it is 25 pg/ml in urine for 5-MeO-DMT and 250 pg/ml for 5-MIAA in urine.)
